Source: patent US20230085307A1, “PYRIDAZINONE COMPOUND AND HERBICIDE” (NISSAN CHEMICAL CORPORATION, priority 2019, published 2023)

Tests used:
barnyard grass [1] = assay: Test Example 4: herbicidal effect by soil treatment (Table 19, symbol H); type: in vivo, barnyard grass (Echinochloa crus-galli)
In short: (§1)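 In this soil treatment, the formulated compound reached the seeds only through the soil: seeds were buried about 1.5 cm deep in sterilized diluvial soil, then the diluted emulsion was sprayed over the surface. After three weeks at 25° C. to 30° C. in a greenhouse, effects were graded on criteria from an earlier test.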

lambsquarters [2] = assay: Test Example 5: herbicidal effect by foliage application, plastic box (Table 20, symbol O); type: in vivo, lambsquarters (Chenopodium album)
In short: (§2)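 Plants were sown into sterilized diluvial soil under about 1.5 cm cover and kept in a greenhouse at 25° C. to 30° C. Fourteen days on, foliage received an even spray of the diluted emulsion. Herbicidal or crop effect was judged three weeks afterwards.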

green foxtail [3] = assay: Test Example 5: herbicidal effect by foliage application, plastic box (Table 20, symbol G); type: in vivo, green foxtail (Setaria viridis)
In short: as §2

Chinese sprangletop = assay: Test Example 3: herbicidal effect by foliage application, Wagner pot (Table 18, symbol D); type: in vivo, chinese sprangletop (Leptochloa chinensis); conditions: 320 g/ha
In short: (§3)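 Plants were sown in alluvial soil held under 0.1–0.5 cm standing water and grown 14 days in a greenhouse at 25–30 °C. An emulsifiable formulation, water-diluted to the set dose, was then sprayed onto the foliage, and effects were scored three weeks later using previously defined criteria.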

velvetleaf [4] = assay: Test Example 5: herbicidal effect by foliage application, plastic box (Table 20, symbol M); type: in vivo, velvetleaf (Abutilon theophrasti)
In short: as §2

chickweed [5] = assay: Test Example 5: herbicidal effect by foliage application, plastic box (Table 20, symbol P); type: in vivo, common chickweed (Stellaria media)
In short: as §2

wild oat [6] = assay: Test Example 4: herbicidal effect by soil treatment (Table 19, symbol I); type: in vivo, wild oat (Avena fatua)
In short: as §1

green foxtail [7] = assay: Test Example 4: herbicidal effect by soil treatment (Table 19, symbol G); type: in vivo, green foxtail (Setaria viridis)
In short: as §1

late watergrass = assay: Test Example 1: herbicidal activity, application before weed generation under submerged conditions (Table 16, symbol A); type: in vivo, late watergrass (Echinochloa oryzicola)
In short: (§4)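 Alluvial soil was flooded to 4 cm depth, weed seeds were sown mixed and 2.5-leaf rice seedlings were transplanted. On sowing day, the compound's emulsion, diluted in water to a set dose, was applied to the water surface. Plants grew at 25–30 °C and were scored 0–5 after three weeks.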

persian speedwell [8] = assay: Test Example 5: herbicidal effect by foliage application, plastic box (Table 20, symbol R); type: in vivo, Persian speedwell (Veronica persica)
In short: as §2

blackgrass [9] = assay: Test Example 4: herbicidal effect by soil treatment (Table 19, symbol J); type: in vivo, blackgrass (Alopecurus myosuroides)
In short: as §1

windgrass [10] = assay: Test Example 5: herbicidal effect by foliage application, plastic box (Table 20, symbol L); type: in vivo, windgrass (Apera spica-venti)
In short: as §2

windgrass [11] = assay: Test Example 4: herbicidal effect by soil treatment (Table 19, symbol L); type: in vivo, windgrass (Apera spica-venti)
In short: as §1

Italian ryegrass [12] = assay: Test Example 5: herbicidal effect by foliage application, plastic box (Table 20, symbol K); type: in vivo, Italian ryegrass (Lolium multiflorum)
In short: as §2

redroot pigweed [13] = assay: Test Example 4: herbicidal effect by soil treatment (Table 19, symbol N); type: in vivo, redroot pigweed (Amaranthus retroflexus)
In short: as §1

chickweed [14] = assay: Test Example 4: herbicidal effect by soil treatment (Table 19, symbol P); type: in vivo, common chickweed (Stellaria media)
In short: as §1

redroot pigweed [15] = assay: Test Example 5: herbicidal effect by foliage application, plastic box (Table 20, symbol N); type: in vivo, redroot pigweed (Amaranthus retroflexus)
In short: as §2

southern crabgrass [16] = assay: Test Example 5: herbicidal effect by foliage application, plastic box (Table 20, symbol F); type: in vivo, southern crabgrass (Digitaria ciliaris)
In short: as §2

southern crabgrass [17] = assay: Test Example 4: herbicidal effect by soil treatment (Table 19, symbol F); type: in vivo, southern crabgrass (Digitaria ciliaris)
In short: as §1

velvetleaf [18] = assay: Test Example 4: herbicidal effect by soil treatment (Table 19, symbol M); type: in vivo, velvetleaf (Abutilon theophrasti)
In short: as §1

Japanese bulrush = assay: Test Example 1: herbicidal activity, application before weed generation under submerged conditions (Table 16, symbol B); type: in vivo, Japanese bulrush (Schoenoplectus juncoides)
In short: as §4

oval-leafed pondweed = assay: Test Example 1: herbicidal activity, application before weed generation under submerged conditions (Table 16, symbol C); type: in vivo, oval-leafed pondweed (Monochoria vaginalis)
In short: as §4

rice flat sedge = assay: Test Example 3: herbicidal effect by foliage application, Wagner pot (Table 18, symbol E); type: in vivo, rice flat sedge (Cyperus iria); conditions: 320 g/ha
In short: as §3

persian speedwell [19] = assay: Test Example 4: herbicidal effect by soil treatment (Table 19, symbol R); type: in vivo, Persian speedwell (Veronica persica)
In short: as §1

Italian ryegrass [20] = assay: Test Example 4: herbicidal effect by soil treatment (Table 19, symbol K); type: in vivo, Italian ryegrass (Lolium multiflorum)
In short: as §1

lambsquarters [21] = assay: Test Example 4: herbicidal effect by soil treatment (Table 19, symbol O); type: in vivo, lambsquarters (Chenopodium album)
In short: as §1

barnyard grass [22] = assay: Test Example 5: herbicidal effect by foliage application, plastic box (Table 20, symbol H); type: in vivo, barnyard grass (Echinochloa crus-galli)
In short: as §2

barnyard grass [23] = assay: Test Example 3: herbicidal effect by foliage application, Wagner pot (Table 18, symbol H); type: in vivo, barnyard grass (Echinochloa crus-galli); conditions: 320 g/ha
In short: as §3

wild oat [24] = assay: Test Example 5: herbicidal effect by foliage application, plastic box (Table 20, symbol I); type: in vivo, wild oat (Avena fatua)
In short: as §2

blackgrass [25] = assay: Test Example 5: herbicidal effect by foliage application, plastic box (Table 20, symbol J); type: in vivo, blackgrass (Alopecurus myosuroides)
In short: as §2

[26] = amount of applied herbicide 320 g/ha
[27] = amount of applied herbicide 320 g/ha, foliage application after 14-day growth, evaluated three weeks after application
[28] = foliage application, AAH 320 g/ha, three weeks after application

## CCCC(=O)Oc1c(C)nn(C)c(=O)c1-c1c(-c2ccc(OC)cc2)sc2cc(F)c(F)cc12 [5-015]
Barnyard grass [1]; [26]
  H: barnyard grass, herbicidal effect grade: 0 (Herbicidal rate of 5% or less (almost no effect))
Lambsquarters [2]; [27]
  Herbicidal effect by foliage application, O: lambsquarters: 5 (Herbicidal rate of 90% or more (almost completely withered))
Green foxtail [3]; [27]
  Herbicidal effect by foliage application, G: green foxtail: 0 (Herbicidal rate of 5% or less (almost no effect))
Chinese sprangletop
  herbicidal effect on Chinese sprangletop (D): 2 (Herbicidal rate of 20% or more and less than 40%)
Velvetleaf [4]; [27]
  Herbicidal effect by foliage application, M: velvetleaf: 4 (Herbicidal rate of 70% or more and less than 90%)
Chickweed [5]; [27]
  Herbicidal effect by foliage application, P: chickweed: 5 (Herbicidal rate of 90% or more (almost completely withered))
Wild oat [6]; [26]
  I: wild oat, herbicidal effect grade: 0 (Herbicidal rate of 5% or less (almost no effect))
Green foxtail [7]; [26]
  G: green foxtail, herbicidal effect grade: 0 (Herbicidal rate of 5% or less (almost no effect))
Late watergrass; [26]
  Herbicidal effect, A: late watergrass: 3 (Herbicidal rate of 40% or more and less than 70%)
Persian speedwell [8]; [27]
  Herbicidal effect by foliage application, R: persian speedwell: 5 (Herbicidal rate of 90% or more (almost completely withered))
Blackgrass [9]; [26]
  J: blackgrass, herbicidal effect grade: 0 (Herbicidal rate of 5% or less (almost no effect))
Windgrass [10]; [27]
  Herbicidal effect by foliage application, L: windgrass: 0 (Herbicidal rate of 5% or less (almost no effect))
Windgrass [11]; [26]
  L: windgrass, herbicidal effect grade: 0 (Herbicidal rate of 5% or less (almost no effect))
Italian ryegrass [12]; [27]
  Herbicidal effect by foliage application, K: Italian ryegrass: 0 (Herbicidal rate of 5% or less (almost no effect))
Redroot pigweed [13]; [26]
  N: redroot pigweed, herbicidal effect grade: 4 (Herbicidal rate of 70% or more and less than 90%)
Chickweed [14]; [26]
  P: chickweed, herbicidal effect grade: 3 (Herbicidal rate of 40% or more and less than 70%)
Redroot pigweed [15]; [27]
  Herbicidal effect by foliage application, N: redroot pigweed: 5 (Herbicidal rate of 90% or more (almost completely withered))
Southern crabgrass [16]; [27]
  Herbicidal effect by foliage application, F: southern crabgrass: 0 (Herbicidal rate of 5% or less (almost no effect))
Southern crabgrass [17]; [26]
  F: southern crabgrass, herbicidal effect grade: 0 (Herbicidal rate of 5% or less (almost no effect))
Velvetleaf [18]; [26]
  M: velvetleaf, herbicidal effect grade: 0 (Herbicidal rate of 5% or less (almost no effect))
Japanese bulrush; [26]
  Herbicidal effect, B: Japanese bulrush: 0 (Herbicidal rate of 5% or less (almost no effect))
oval-leafed pondweed; [26]
  Herbicidal effect, C: oval-leafed pondweed: 0 (Herbicidal rate of 5% or less (almost no effect))
Rice flat sedge
  herbicidal effect on rice flat sedge (E): 3 (Herbicidal rate of 40% or more and less than 70%)
Persian speedwell [19]; [26]
  R: persian speedwell, herbicidal effect grade: 5 (Herbicidal rate of 90% or more (almost completely withered))
Italian ryegrass [20]; [26]
  K: Italian ryegrass, herbicidal effect grade: 0 (Herbicidal rate of 5% or less (almost no effect))
Lambsquarters [21]; [26]
  O: lambsquarters, herbicidal effect grade: 4 (Herbicidal rate of 70% or more and less than 90%)
Barnyard grass [22]; [27]
  Herbicidal effect by foliage application, H: barnyard grass: 0 (Herbicidal rate of 5% or less (almost no effect))
Barnyard grass [23]
  herbicidal effect on barnyard grass (H): 2 (Herbicidal rate of 20% or more and less than 40%)
Wild oat [24]; [27]
  Herbicidal effect by foliage application, I: wild oat: 0 (Herbicidal rate of 5% or less (almost no effect))
Blackgrass [25]; [27]
  Herbicidal effect by foliage application, J: blackgrass: 0 (Herbicidal rate of 5% or less (almost no effect))

## COCOc1c(C)nn(C)c(=O)c1-c1c(-c2ccc(OCc3ccccc3)cc2)sc2ccccc12 [1-135]
Barnyard grass [1]; AAH 320 g/ha
  H: barnyard grass, herbicidal effect rating: 0 (Herbicidal rate of 5% or less (almost no effect))
Lambsquarters [2]; [28]
  O: lambsquarters, herbicidal effect: 5 (Herbicidal rate of 90% or more (almost completely withered))
Green foxtail [3]; [28]
  G: green foxtail, herbicidal effect: 4 (Herbicidal rate of 70% or more and less than 90%)
Chinese sprangletop
  herbicidal effect on D (Chinese sprangletop), rating 0-5: 3 (Herbicidal rate of 40% or more and less than 70%)
Velvetleaf [4]; [28]
  M: velvetleaf, herbicidal effect: 2 (Herbicidal rate of 20% or more and less than 40%)
Chickweed [5]; [28]
  P: chickweed, herbicidal effect: 5 (Herbicidal rate of 90% or more (almost completely withered))
Wild oat [6]; AAH 320 g/ha
  I: wild oat, herbicidal effect rating: 0 (Herbicidal rate of 5% or less (almost no effect))
Green foxtail [7]; AAH 320 g/ha
  G: green foxtail, herbicidal effect rating: 0 (Herbicidal rate of 5% or less (almost no effect))
Late watergrass; 320 g/ha applied herbicide
  Herbicidal effect on A: late watergrass (grade 0-5): 4 (Herbicidal rate of 70% or more and less than 90%)
Persian speedwell [8]; [28]
  R: persian speedwell, herbicidal effect: 4 (Herbicidal rate of 70% or more and less than 90%)
Blackgrass [9]; AAH 320 g/ha
  J: blackgrass, herbicidal effect rating: 0 (Herbicidal rate of 5% or less (almost no effect))
Windgrass [10]; [28]
  L: windgrass, herbicidal effect: 0 (Herbicidal rate of 5% or less (almost no effect))
Windgrass [11]; AAH 320 g/ha
  L: windgrass, herbicidal effect rating: 0 (Herbicidal rate of 5% or less (almost no effect))
Italian ryegrass [12]; [28]
  K: Italian ryegrass, herbicidal effect: 0 (Herbicidal rate of 5% or less (almost no effect))
Redroot pigweed [13]; AAH 320 g/ha
  N: redroot pigweed, herbicidal effect rating: 0 (Herbicidal rate of 5% or less (almost no effect))
Chickweed [14]; AAH 320 g/ha
  P: chickweed, herbicidal effect rating: 0 (Herbicidal rate of 5% or less (almost no effect))
Redroot pigweed [15]; [28]
  N: redroot pigweed, herbicidal effect: 5 (Herbicidal rate of 90% or more (almost completely withered))
Southern crabgrass [16]; [28]
  F: southern crabgrass, herbicidal effect: 0 (Herbicidal rate of 5% or less (almost no effect))
Southern crabgrass [17]; AAH 320 g/ha
  F: southern crabgrass, herbicidal effect rating: 2 (Herbicidal rate of 20% or more and less than 40%)
Velvetleaf [18]; AAH 320 g/ha
  M: velvetleaf, herbicidal effect rating: 0 (Herbicidal rate of 5% or less (almost no effect))
Japanese bulrush; 320 g/ha applied herbicide
  Herbicidal effect on B: Japanese bulrush (grade 0-5): 3 (Herbicidal rate of 40% or more and less than 70%)
oval-leafed pondweed; 320 g/ha applied herbicide
  Herbicidal effect on C: oval-leafed pondweed (grade 0-5): 3 (Herbicidal rate of 40% or more and less than 70%)
Rice flat sedge
  herbicidal effect on E (rice flat sedge), rating 0-5: 3 (Herbicidal rate of 40% or more and less than 70%)
Persian speedwell [19]; AAH 320 g/ha
  R: persian speedwell, herbicidal effect rating: 3 (Herbicidal rate of 40% or more and less than 70%)
Italian ryegrass [20]; AAH 320 g/ha
  K: Italian ryegrass, herbicidal effect rating: 0 (Herbicidal rate of 5% or less (almost no effect))
Lambsquarters [21]; AAH 320 g/ha
  O: lambsquarters, herbicidal effect rating: 0 (Herbicidal rate of 5% or less (almost no effect))
Barnyard grass [22]; [28]
  H: barnyard grass, herbicidal effect: 1 (Herbicidal rate of 5% or more and less than 20%)
Barnyard grass [23]
  herbicidal effect on H (barnyard grass), rating 0-5: 2 (Herbicidal rate of 20% or more and less than 40%)
Wild oat [24]; [28]
  I: wild oat, herbicidal effect: 0 (Herbicidal rate of 5% or less (almost no effect))
Blackgrass [25]; [28]
  J: blackgrass, herbicidal effect: 0 (Herbicidal rate of 5% or less (almost no effect))
